Assay results from ChEMBL document CHEMBL3352413, “4-Amino-2-arylamino-6-(2,6-dichlorophenyl)-pyrido[2,3-d]pyrimidin-7-(8H)-ones as BCR kinase inhibitors for B lymphoid malignancies” (Eur J Med Chem, 2014).
Active and inactive are the calls of the source. The calls are words filed in the database; no cut-off is given here.

Columns and labels:
[1] = Growth inhibition of human JeKo1 cells after 48 hrs by MTT assay; type: functional; settings: JeKo-1, 48 h
WSU-NHL [2] = assay: Growth inhibition of human WSU-NHL cells after 48 hrs by MTT assay; type: functional
[3] = Growth inhibition of human SUDHL16 cells after 48 hrs by MTT assay; type: functional; settings: SU-DHL-16, 48 h
[4] = Growth inhibition of human HBL2 cells after 48 hrs by MTT assay; type: functional; settings: HBL2, 48 h
[5] = Growth inhibition of human SUDHL16 cells after 24 hrs by MTT assay; type: functional; settings: SU-DHL-16, 24 h
[6] = Growth inhibition of human Z138C cells after 48 hrs by MTT assay; type: functional
[7] = Growth inhibition of human Z138C cells after 24 hrs by MTT assay; type: functional
[8] = Growth inhibition of human Rec1 cells after 24 hrs by MTT assay; type: functional; settings: Rec1, 24 h
[9] = Growth inhibition of human Mino cells after 24 hrs by MTT assay; type: functional
[10] = Growth inhibition of human GRANTA-519 cells after 48 hrs by MTT assay; type: functional; settings: Granta-519, 48 h
[11] = Growth inhibition of human JVM2 cells after 24 hrs by MTT assay; type: functional; settings: JVM-2, 24 h
[12] = Growth inhibition of human MEC1 cells after 24 hrs by MTT assay; type: functional; settings: MEC1, 24 h
[13] = Growth inhibition of human JeKo1 cells after 24 hrs by MTT assay; type: functional; settings: JeKo-1, 24 h
[14] = Growth inhibition of human DOHH2 cells after 48 hrs by MTT assay; type: functional; settings: DOHH-2, 48 h
[15] = Growth inhibition of human SUDHL8 cells after 48 hrs by MTT assay; type: functional; settings: SU-DHL-8, 48 h
[16] = Growth inhibition of human DOHH2 cells after 24 hrs by MTT assay; type: functional; settings: DOHH-2, 24 h
[17] = Growth inhibition of human U2932 cells after 24 hrs by MTT assay; type: functional; settings: U2932, 24 h
[18] = Growth inhibition of human MEC2 cells after 48 hrs by MTT assay; type: functional; settings: MEC2, 48 h
[19] = Growth inhibition of human HBL2 cells after 24 hrs by MTT assay; type: functional; settings: HBL2, 24 h
[20] = Growth inhibition of human MEC2 cells after 24 hrs by MTT assay; type: functional; settings: MEC2, 24 h
[21] = Growth inhibition of human MEC1 cells after 48 hrs by MTT assay; type: functional; settings: MEC1, 48 h
[22] = Growth inhibition of human U2932 cells after 48 hrs by MTT assay; type: functional; settings: U2932, 48 h
[23] = Growth inhibition of human GRANTA-519 cells after 24 hrs by MTT assay; type: functional; settings: Granta-519, 24 h
[24] = Growth inhibition of human Maver1 cells after 24 hrs by MTT assay; type: functional; settings: Maver1, 24 h
[25] = Growth inhibition of human WSU-FSCCL cells after 48 hrs by MTT assay; type: functional
[26] = Growth inhibition of human SC1 cells after 48 hrs by MTT assay; type: functional; settings: SC-1, 48 h
[27] = Inhibition of cell proliferation of human Rec1 cells at 5 uM after 24 hrs by MTT assay; type: functional; settings: Rec1, 24 h
[28] = Growth inhibition of human Maver1 cells after 48 hrs by MTT assay; type: functional; settings: Maver1, 48 h
[29] = Growth inhibition of human WSU-FSCCL cells after 24 hrs by MTT assay; type: functional
[30] = Growth inhibition of human SUDHL8 cells after 24 hrs by MTT assay; type: functional; settings: SU-DHL-8, 24 h
[31] = Growth inhibition of human SC1 cells after 24 hrs by MTT assay; type: functional; settings: SC-1, 24 h
WSU-NHL [32] = assay: Growth inhibition of human WSU-NHL cells after 24 hrs by MTT assay; type: functional
[33] = Growth inhibition of human UPN1 cells after 24 hrs by MTT assay; type: functional; settings: UPN1, 24 h
[34] = Growth inhibition of human OCI-Ly8 cells after 48 hrs by MTT assay; type: functional; settings: OCI-Ly8, 48 h
[35] = Growth inhibition of human JVM13 cells after 24 hrs by MTT assay; type: functional; settings: JVM13, 24 h
[36] = Growth inhibition of human Mino cells after 48 hrs by MTT assay; type: functional
[37] = Growth inhibition of human JVM2 cells after 48 hrs by MTT assay; type: functional; settings: JVM-2, 48 h
[38] = Growth inhibition of human UPN1 cells after 48 hrs by MTT assay; type: functional; settings: UPN1, 48 h
[39] = Growth inhibition of human Rec1 cells after 48 hrs by MTT assay; type: functional; settings: Rec1, 48 h
[40] = Growth inhibition of human OCI-Ly8 cells after 24 hrs by MTT assay; type: functional; settings: OCI-Ly8, 24 h
[41] = Growth inhibition of human JVM13 cells after 48 hrs by MTT assay; type: functional; settings: JVM13, 48 h
[42] = target: Tyrosine-protein kinase Lyn (Homo sapiens) (UniProt P07948); assay: Inhibition of Lyn phosphorylation in human Rec1 cells at 2.5 uM incubated for 6 hrs by Western blotting method; type: cell-based
[43] = target: Tyrosine-protein kinase Lyn (Homo sapiens) (UniProt P07948); assay: Inhibition of Lyn phosphorylation in human Rec1 cells at 0.1 to 5 uM incubated for 6 hrs by Western blotting method; type: cell-based
[44] = target: Tyrosine-protein kinase BTK (Homo sapiens) (UniProt Q06187); assay: Inhibition of BTK phosphorylation in human Rec1 cells at 1 uM incubated for 6 hrs by Western blotting method; type: cell-based
[45] = target: Tyrosine-protein kinase Lyn (Homo sapiens) (UniProt P07948); assay: Inhibition of Lyn (unknown origin) assessed as enzyme residual activity at 10 uM by radiometric protein kinase assay
[46] = target: Tyrosine-protein kinase BTK (Homo sapiens) (UniProt Q06187); assay: Inhibition of BTK (unknown origin) assessed as enzyme residual activity at 10 uM by radiometric protein kinase assay
[47] = target: Tyrosine-protein kinase SYK (Homo sapiens) (UniProt P43405); assay: Inhibition of Syk (unknown origin) assessed as enzyme residual activity at 10 uM by radiometric protein kinase assay
[48] = target: Tyrosine-protein kinase BTK (Homo sapiens) (UniProt Q06187); assay: Inhibition of BTK phosphorylation in human Rec1 cells at 5 uM incubated for 6 hrs by Western blotting method; type: cell-based
[49] = target: Tyrosine-protein kinase SYK (Homo sapiens) (UniProt P43405); assay: Inhibition of Syk phosphorylation in human Rec1 cells at 0.1 to 5 uM incubated for 6 hrs by Western blotting method; type: cell-based
[50] = Solubility in water; type: physicochemical
[51] = Growth inhibition of bortezomib-resistant human JBR cells after 48 hrs by MTT assay; type: functional
[52] = Growth inhibition of bortezomib-resistant human JBR cells after 24 hrs by MTT assay; type: functional
PBMC = assay: Induction of apoptotic cell death in human PBMCs at 1 to 10 uM after 24 hrs by Annexin V and propidium iodide staining based flow cytometry

Sequence of Tyrosine-protein kinase BTK (Homo sapiens) (Q06187 whole entry): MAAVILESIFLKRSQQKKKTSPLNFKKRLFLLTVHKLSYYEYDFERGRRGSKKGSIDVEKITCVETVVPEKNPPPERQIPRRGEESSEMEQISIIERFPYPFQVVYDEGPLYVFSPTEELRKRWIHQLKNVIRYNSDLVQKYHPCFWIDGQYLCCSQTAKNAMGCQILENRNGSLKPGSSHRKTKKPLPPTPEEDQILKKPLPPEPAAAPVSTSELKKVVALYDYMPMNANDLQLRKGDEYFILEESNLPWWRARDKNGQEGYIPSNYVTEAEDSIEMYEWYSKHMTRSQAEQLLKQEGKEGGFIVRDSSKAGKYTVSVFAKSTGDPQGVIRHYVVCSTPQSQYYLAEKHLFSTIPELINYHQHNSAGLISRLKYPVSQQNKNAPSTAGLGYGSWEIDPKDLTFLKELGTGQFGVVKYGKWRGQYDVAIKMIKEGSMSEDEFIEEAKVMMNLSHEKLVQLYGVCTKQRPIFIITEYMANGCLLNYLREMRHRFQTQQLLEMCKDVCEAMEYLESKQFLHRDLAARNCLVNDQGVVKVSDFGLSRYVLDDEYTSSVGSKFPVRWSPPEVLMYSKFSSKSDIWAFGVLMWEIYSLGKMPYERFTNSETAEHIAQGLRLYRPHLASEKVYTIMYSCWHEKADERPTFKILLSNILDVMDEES
Sequence of Tyrosine-protein kinase Lyn (Homo sapiens) (P07948 2-512 limits assumed): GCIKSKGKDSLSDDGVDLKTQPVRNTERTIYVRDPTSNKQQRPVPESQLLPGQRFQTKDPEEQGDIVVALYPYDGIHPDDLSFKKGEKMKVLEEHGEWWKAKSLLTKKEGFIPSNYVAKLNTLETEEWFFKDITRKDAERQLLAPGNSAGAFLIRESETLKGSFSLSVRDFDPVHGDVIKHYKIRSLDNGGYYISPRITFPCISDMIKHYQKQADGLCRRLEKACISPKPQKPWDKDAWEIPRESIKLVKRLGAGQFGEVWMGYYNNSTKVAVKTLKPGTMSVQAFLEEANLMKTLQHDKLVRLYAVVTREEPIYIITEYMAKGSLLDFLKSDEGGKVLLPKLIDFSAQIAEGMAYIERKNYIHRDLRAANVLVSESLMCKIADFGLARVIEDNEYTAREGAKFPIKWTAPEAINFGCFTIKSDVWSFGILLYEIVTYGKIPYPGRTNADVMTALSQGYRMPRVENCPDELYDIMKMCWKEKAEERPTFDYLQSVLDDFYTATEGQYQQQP

CN1CCN(c2ccc(Nc3nc(N)c4cc(-c5c(Cl)cccc5Cl)c(=O)n(C)c4n3)cc2)CC1 [listing 1 of 2 here]
GI50 [1]: 3 µM | GI50 (WSU-NHL [2]): 2.7 µM | GI50 [3]: 5 µM | GI50 [4]: 2.6 µM | GI50 [5]: 5.4 µM | GI50 [6]: 3 µM | GI50 [7]: 3.6 µM | GI50 [8]: 3.2 µM | GI50 [9]: 3.6 µM | GI50 [10]: 3 µM | GI50 [11]: 3.6 µM | GI50 [12]: 5.9 µM | GI50 [13]: 3.6 µM | GI50 [14]: 2.7 µM | GI50 [15]: 5 µM | GI50 [16]: 3.7 µM | GI50 [17]: 5.4 µM | GI50 [18]: 4.9 µM | GI50 [19]: 4.9 µM | GI50 [20]: 5.9 µM | GI50 [21]: 4.9 µM | GI50 [22]: 5 µM | GI50 [23]: 3.6 µM | GI50 [24]: 3.6 µM | GI50 [25]: 2.7 µM | GI50 [26]: 2.7 µM | inhibition at 5 µM [27]: 63% | GI50 [28]: 3 µM | GI50 [29]: 3.7 µM | GI50 [30]: 5.4 µM | GI50 [31]: 3.7 µM | GI50 (WSU-NHL [32]): 3.7 µM | GI50 [33]: 3.6 µM | GI50 [34]: 5 µM | GI50 [35]: 5.9 µM | GI50 [36]: 3 µM | GI50 [37]: 3 µM | GI50 [38]: 3 µM | GI50 [39]: 3 µM | GI50 [40]: 5.4 µM | GI50 [41]: 4.9 µM

COc1cc(Nc2ncc(F)c(Nc3ccc4c(n3)NC(=O)C(C)(C)O4)n2)cc(OC)c1OC [R-406]
inhibition [42]: Active | inhibition at 5 µM [27]: 31%

CN1CCN(c2ccc(Nc3nc(N)c4cc(-c5c(Cl)cccc5Cl)c(=O)n(C)c4n3)cc2)CC1 [listing 2 of 2 here]
inhibition [43]: Dose-dependent effect | inhibition [42]: Active | inhibition [44]: 10% | Activity [45]: -1% | Activity [46]: 3% | Activity [47]: 9% | inhibition [48]: 40% | inhibition [49]: Dose-dependent effect

C=CC(=O)N1CCC[C@@H](n2nc(-c3ccc(Oc4ccccc4)cc3)c3c(N)ncnc32)C1 [IBRUTINIB]
inhibition [42]: Active | inhibition at 5 µM [27]: 3%

Nc1nc(Nc2ccccc2)nc2[nH]c(=O)c(-c3c(Cl)cccc3Cl)cc12
GI50 [4]: > 100 µM | GI50 [8]: 12.1 µM | GI50 [19]: 8.8 µM | GI50 [39]: > 100 µM

Nc1nc(N)c2c(n1)NC(=O)C(c1c(Cl)cccc1Cl)C2 (stereo not drawn)
GI50 [4]: > 100 µM | GI50 [8]: > 100 µM | GI50 [19]: > 100 µM | GI50 [39]: > 100 µM

Cn1c(=O)c(-c2c(Cl)cccc2Cl)cc2c(N)nc(Nc3ccc(OCCN4CCOCC4)cc3)nc21
Activity [45]: 0% | Activity [46]: 16% | Activity [47]: 44%

CN1CCN(c2ccc(Nc3nc(N)c4cc(-c5c(Cl)cccc5Cl)c(=O)n(C)c4n3)cc2)CC1.CS(=O)(=O)O
solubility [50]: 10000 µg/mL

Nc1nc(Nc2ccccc2)nc2c1CC(c1c(Cl)cccc1Cl)C(=O)N2 (stereo not drawn)
GI50 [4]: 5.7 µM | GI50 [8]: > 100 µM | GI50 [19]: 12 µM | GI50 [39]: 52.3 µM

Cn1c(=O)c(-c2c(Cl)cccc2Cl)cc2c(N)nc(Nc3ccc(NCCN4CCOCC4)cc3)nc21
Activity [45]: 0% | Activity [46]: 10% | Activity [47]: 31%

Cn1c(=O)c(-c2c(Cl)cccc2Cl)cc2c(N)nc(Nc3ccccc3)nc21
GI50 [51]: 0.9 µM | GI50 [4]: 0.4 µM | GI50 [8]: 1.8 µM | GI50 [19]: 1.7 µM | solubility [50]: < 1 µg/mL | GI50 [52]: 3.1 µM | GI50 [39]: 0.7 µM | Activity (PBMC): 3%

Nc1nc(Nc2ccccc2)nc2c1CC(c1c(Cl)cccc1Cl)CN2 (stereo not drawn)
GI50 [4]: 2.4 µM | GI50 [8]: 4 µM | GI50 [19]: 7.5 µM | GI50 [39]: 1.3 µM

CN1C(=O)C(c2c(Cl)cccc2Cl)Cc2c(N)nc(Nc3ccccc3)nc21 (stereo not drawn)
GI50 [4]: 1.7 µM | GI50 [8]: 67.2 µM | GI50 [19]: > 100 µM | GI50 [39]: 1.3 µM
